Results reported in US20080227798A1, “POLYMORPHS OF SUCCINATE SALT OF 2-[6-(3-AMINO-PIPERIDIN-1-YL)-3-METHYL-2,4-DIOXO-3,4-DIHYDRO-2H-PYRIMIDIN-1-YLMETHY]-4-FLUOR-BENZONITRILE AND METHODS OF USE THEREFOR” (priority 2006, published 2008).
“Also recorded” adds a separate entry of the source.

Key:
Assay type in all cases: physicochemical
[1] = Thermogravimetric analysis (TGA)
Method: Thermogravimetric (TG) analyses were performed using a TA Instruments 2950 thermogravimetric analyzer. Each sample was placed in an aluminum sample pan and inserted into the TG furnace. The furnace was first equilibrated at 25° C., then heated under nitrogen at a rate of 10° C./min, up to a final temperature of 350° C. Nickel and Alumel™ were used as the calibration standards.

[2] = Relative humidity stressing experiments
Text: Samples of Compound I were placed uncovered in approximately 58%, 88%, and 97% relative humidity jars. The samples were stored in the jars for approximately 8 days. The solids were collected and analyzed by XRPD for form identification. […] An aliquot of a mixture of Form A+B was stressed at 88% relative humidity for 23 days. Amorphous Form was stressed at 58% and 88% relative humidity for 23 days.

[3] = Slurry interconversion studies
Text: An excess amount of Compound I was slurried in test solvent on a rotating wheel for approximately 5 or 7 days. The solids were typically collected by vacuum filtration, air dried in the hood, and analyzed by XRPD for form identification.
Samples of mixture of Form A and Form B of Compound I were slurried in water and THF:water (9:1), for up to 13 days.

[4] = Moisture sorption/desorption analysis
Method: Moisture sorption/desorption data were collected on a VTI SGA-100 Vapor Sorption Analyzer. Sorption and desorption data were collected over a range of 5% to 95% relative humidity (RH) at 10% RH intervals under a nitrogen purge. Samples were not dried prior to analysis. Equilibrium criteria used for analysis were less than 0.0100% weight change in 5 minutes, with a maximum equilibration time of 3 hours if the weight criterion was not met. Data were not corrected for the initial moisture content of the samples. NaCl and PVP were used as calibration standards. Moisture sorption and desorption study was conducted on a sample of Form A+B. The sample was prepared by crashed cooling crystallization (Example 3, section A.6) of the polymorphic forms from a ethanol:water (95:5) solution of Compound I. The moisture sorption and desorption study was conducted according to the procedures outlined in Example 3, section B.10. The data collected is plotted in FIG. 13 and summarized in Table L. Moisture sorption and desorption study was conducted on a sample of Form E. The sample was prepared by solvent/antisolvent crystallization (Example 3, section A.7) by the addition of acetonitrile to Compound I in water. The moisture sorption and desorption study was conducted according to the procedures outlined in Example 3, section B.10. The data collected is plotted in FIG. 23 and summarized in Table M. Moisture sorption and desorption study was conducted on a sample of Amorphous Form. The sample was prepared by lyophilolization of a solution of Compound I in water (Example 3, section A.9). The moisture sorption and desorption study was conducted according to the procedures outlined in Example 3, section B.10.

Dehydration experiment = test: Dehydration experiment
Text: Hydrated samples of Compound I were dehydrated at ambient conditions (2 days) and in an ambient temperature vacuum oven (1 day). The solids were collected and analyzed by XRPD for form identification.
Aliquots of Form A+B of Compound I were stored at ambient condition for two days and in an ambient temperature vacuum over for one day. The solids were collected and analyzed by XRPD and confirmed to be Form A.

[5] = Thermogravimetric-infrared (TG-IR) analysis
Text: Thermogravimetric infrared (TG-IR) analyses were acquired on a TA Instruments thermogravimetric (TG) analyzer model 2050 interfaced to a Magna 560® Fourier transform infrared (FT-IR) spectrophotometer (Thermo Nicolet) equipped with an Ever-Glo mid/far IR source, a potassium bromide (KBr) beamsplitter, and a deuterated triglycine sulfate (DTGS) detector. The TG instrument was operated under a flow of helium at 90 and 10 cc/min for the purge and balance, respectively. Each sample was placed in a platinum sample pan, inserted into the TG furnace, accurately weighed by the instrument, and the furnace was heated from ambient temperature to 250° C. at a rate of 20° C./min. The TG instrument was started first, immediately followed by the FT-IR instrument. Each IR spectrum represents 32 co-added scans collected at a spectral resolution of 4 cm^−1. A background scan was collected before the beginning of the experiment. Wavelength calibration was performed using polystyrene. The TG calibration standards were nickel and Alumel™. Volatiles were identified from a search of the High Resolution Nicolet TGA Vapor Phase spectral library.

**Q.** What does the source list for `Cn1c(=O)cc(N2CCC[C@@H](N)C2)n(Cc2ccccc2C#N)c1=O.O=C(O)CCC(=O)O` [Form A]?
**A.** TGA weight loss ([1]; heated from 25° C. to 165° C.): insignificant weight loss; stability at ambient conditions ([2]; ambient conditions, conclusion from characterization data): stable; form by XRPD after relative humidity stressing ([2]; approximately 50% relative humidity, 29 days): Form A; form by XRPD after relative humidity stressing ([2]; approximately 58% relative humidity, 29 days): did not exhibit form changes; form by XRPD after relative humidity stressing ([2]; approximately 97% relative humidity, 29 days): did not exhibit form changes; also recorded: Form A

**Q.** With `Cn1c(=O)cc(N2CCC[C@@H](N)C2)n(Cc2cc(F)ccc2C#N)c1=O.O=C(O)CCC(=O)O` [A + B] as the compound, how does the “Final Form after slurry (XRPD)” value ([3]; THF:H2O 9:1, 13 days (approximate)) read?
**A.** A + B

**Q.** For `Cn1c(=O)cc(N2CCC[C@@H](N)C2)n(Cc2cc(F)ccc2C#N)c1=O.O=C(O)CCC(=O)O` [Form A+B], which “reversible weight change on sorption/desorption” value [4] is on record?
**A.** 1.2%

**Q.** What about the “weight gain on sorption” value ([4]; 5-95% RH) of the same compound?
**A.** 1.2% weight gain from 5-95% RH

**Q.** And the “weight lost on desorption” value ([4]; 95-5% RH)?
**A.** 1.2% weight lost from 95-5% RH

**Q.** And the Weight % chg ([4]; Samp RH 4.83%, 25.10° C., elapsed 445.9 min (desorption))?
**A.** −0.658%

**Q.** And the Weight % chg ([4]; Samp RH 5.14%, 25.05° C., elapsed 91.5 min)?
**A.** −0.665%

**Q.** What about the Weight % chg ([4]; Samp RH 14.88%, 25.04° C., elapsed 137.8 min (sorption)) of the same compound?
**A.** −0.184%

**Q.** And the Weight % chg ([4]; Samp RH 14.96%, 25.09° C., elapsed 359.7 min (desorption))?
**A.** 0.020%

**Q.** What about the Weight % chg ([4]; Samp RH 25.03%, 25.07° C., elapsed 165.5 min (sorption)) of the same compound?
**A.** 0.004%

**Q.** What about the Weight % chg ([4]; Samp RH 25.11%, 25.09° C., elapsed 338.5 min (desorption)) of the same compound?
**A.** 0.149%

**Q.** What about the Weight % chg ([4]; Samp RH 34.82%, 25.06° C., elapsed 179.7 min (sorption)) of the same compound?
**A.** 0.098%

**Q.** What about the Weight % chg ([4]; Samp RH 34.92%, 25.06° C., elapsed 319.3 min (desorption)) of the same compound?
**A.** 0.237%

**Q.** What about the Weight % chg ([4]; Samp RH 44.88%, 25.06° C., elapsed 196.2 min (sorption)) of the same compound?
**A.** 0.208%

**Q.** What about the Weight % chg ([4]; Samp RH 45.07%, 25.07° C., elapsed 307.3 min (desorption)) of the same compound?
**A.** 0.299%

**Q.** What about the Weight % chg ([4]; Samp RH 54.95%, 25.06° C., elapsed 208.7 min (sorption)) of the same compound?
**A.** 0.284%

**Q.** What about the Weight % chg ([4]; Samp RH 55.02%, 25.07° C., elapsed 296.5 min (desorption)) of the same compound?
**A.** 0.353%

**Q.** And the Weight % chg ([4]; Samp RH 62.77%, 25.03° C., elapsed 0.1 min (start))?
**A.** 0.000%

**Q.** What about the Weight % chg ([4]; Samp RH 64.94%, 25.04° C., elapsed 285.2 min (desorption)) of the same compound?
**A.** 0.406%

**Q.** What about the Weight % chg ([4]; Samp RH 65.00%, 25.08° C., elapsed 219.7 min (sorption)) of the same compound?
**A.** 0.347%

**Q.** And the Weight % chg ([4]; Samp RH 75.01%, 25.05° C., elapsed 231.9 min (sorption))?
**A.** 0.406%

**Q.** What about the Weight % chg ([4]; Samp RH 75.35%, 25.08° C., elapsed 274.2 min (desorption)) of the same compound?
**A.** 0.456%

**Q.** What about the Weight % chg ([4]; Samp RH 84.92%, 25.09° C., elapsed 243.8 min (sorption)) of the same compound?
**A.** 0.466%

**Q.** And the Weight % chg ([4]; Samp RH 85.01%, 25.08° C., elapsed 265.2 min (desorption))?
**A.** 0.510%

**Q.** What about the Weight % chg ([4]; Samp RH 94.67%, 25.08° C., elapsed 256.6 min (sorption)) of the same compound?
**A.** 0.563%

**Q.** And the “form by XRPD after slurry” value ([3]; slurried in water and THF:water (9:1), up to 13 days)?
**A.** either Form A or Form A+B

**Q.** And the form after slurry ([3]; slurried in water, water removed by evaporation)?
**A.** converted to Form A

**Q.** What about the “form by XRPD after dehydration” value (Dehydration experiment; ambient conditions, two days) of the same compound?
**A.** converted to Form A

**Q.** What about the “form by XRPD after dehydration” value (Dehydration experiment; vacuum oven at ambient temperature, one day) of the same compound?
**A.** converted to Form A

**Q.** And the “water content consistent with weight loss” value ([5]; from 2.4% weight loss)?
**A.** 0.5 to 1.0 moles of water

**Q.** What about the “form by XRPD after relative humidity stressing” value ([2]; 58% relative humidity, 23 days) of the same compound?
**A.** Form A

**Q.** And the “form by XRPD after relative humidity stressing” value ([2]; 88% relative humidity, 23 days)?
**A.** Form A

**Q.** Which “TGA total weight loss” value ([1]; equilibration plus 25° C. to 85° C.) does the source give for `Cn1c(=O)cc(N2CCC[C@@H](N)C2)n(Cc2cc(F)ccc2C#N)c1=O.O=C(O)CCC(=O)O` [Form D] here?
**A.** approximately 30%

**Q.** And the “water content consistent with total weight loss” value ([1]; from about 30% total weight loss)?
**A.** approximately 11 moles of water

**Q.** And the TG-IR weight loss ([5]; heated from 20° C. to 100° C., evaporation of water)?
**A.** 24.0% weight loss when heated from
